Measurements from patent US20230000813A1, “COMPOUND FOR THE TREATMENT OF BOVINE OR SWINE RESPIRATORY DISEASE” (Intervet Inc., priority 2016, published 2023).
≈ marks a conversion by molar mass, not a printed value.

Columns and labels:
Experiment in all cases: MIC, broth-microdilution (CLSI VET01-A4)
Assay type in all cases: cell-based
[1] = tested on: Mannheimia haemolytica MH 13065 (XB0446-6003.9, BRD field isolate)
Protocol: (§1) The Minimum inhibitory concentrations (MIC) of compounds according to the invention for a number of veterinary bacterial pathogens were determined by the broth-microdilution method according to CLSI document VET01-A4.
(§2) Microdilution trays containing a doubling dilution series of the test compound were used for the tests. The MIC results were interpreted according to the CLSI documents VET01-S3. The lowest concentration of compound at which no visible growth (i.e. no turbidity) detected by the unaided eye was recorded as the MIC.

[2] = tested on: Mannheimia haemolytica MH 13093 (XB0472-6014.1, BRD field isolate)
Protocol: as §1, §2

[3] = tested on: Mannheimia haemolytica MH 6374 (ATCC 33396, reference strain); conditions: Mannheimia haemolytica MH 6374; for MIC: read-out: MIC MH 6374
Protocol: as §1, §2
(§3) The Minimum inhibitory concentrations (MIC) of compounds according to the invention were determined by the broth-microdilution method according to CLSI document VET01-A4.
(§4) Microdilution trays containing a doubling dilution series of the test compound were used for the tests.
(§5) The MIC results were interpreted according to the CLSI documents VET01-S3. The lowest concentration of compound at which no visible growth (i.e. no turbidity) detected by the unaided eye was recorded as the MIC.

[4] = tested on: Pasteurella multocida PM 10775 (080130003051, BRD field isolate); conditions: Pasteurella multocida PM 10775
Protocol: as §1, §2, §3, §4, §5

[5] = tested on: Mannheimia haemolytica MH 12587 (1071, BRD field isolate, macrolide-resistance: erm+, E+); conditions: Mannheimia haemolytica MH 12587, macrolide-resistant
Protocol: as §1, §2, §3, §4, §5

[6] = tested on: Pasteurella multocida PM 6391 (ATCC 43137, reference strain); conditions: Pasteurella multocida PM 6391; for MIC: read-out: MIC PM 6391
Protocol: as §1, §2, §3, §4, §5

[7] = tested on: Pasteurella multocida PM 12080 (IV102277-0093, BRD field isolate); conditions: Pasteurella multocida PM 12080; for MIC: read-out: MIC PM 12080
Protocol: as §1, §2, §3, §4, §5

[8] = tested on: Mannheimia haemolytica MH 6357 (M7/2, reference strain, cattle infection strain); conditions: Mannheimia haemolytica MH 6357; read-out: MIC MH 6357
Protocol: as §1, §2, §3, §4, §5

[9] = tested on: Pasteurella multocida PM 6267 (P 2225 (L386), reference strain, mouse infection strain); conditions: Pasteurella multocida PM 6267; for MIC: read-out: MIC PM 6267
Protocol: as §1, §2, §3, §4, §5

[10] = tested on: Mannheimia haemolytica MH 10720 (154, BRD field isolate); conditions: Mannheimia haemolytica MH 10720; for MIC: read-out: MIC MH 10720
Protocol: as §1, §2, §3, §4, §5

C[C@@H](O)[C@H](NC(=O)c1ccc(C#Cc2ccc(CNCc3cccs3)nc2)cc1)C(=O)NO [Compound 425]
MIC [1]: 0.4 µM (≈ 0.186 µg/mL)
MIC [2]: 0.8 µM (≈ 0.372 µg/mL)
MIC [3]: 0.8 µM (≈ 0.372 µg/mL)
MIC PM 10775 [4]: <=0.1 μM
MIC MH 12587 [5]: 0.8 µM (≈ 0.372 µg/mL)
MIC PM 6391 [6]: <=0.1 μM
MIC PM 12080 [7]: <=0.1 μM
MIC [8]: 0.8 µM (≈ 0.372 µg/mL)
MIC PM 6267 [9]: <=0.1 μM

C[C@@H](O)[C@H](NC(=O)c1ccc(C#Cc2ccc(CNC3CCC3)s2)cc1)C(=O)NO [Compound 402]
MIC [1]: 0.4 µM (≈ 0.171 µg/mL)
MIC [2]: 0.8 µM (≈ 0.342 µg/mL)
MIC [3]: 0.8 µM (≈ 0.342 µg/mL)
MIC PM 10775 [4]: <=0.1 μM
MIC MH 12587 [5]: 1.6 µM (≈ 0.684 µg/mL)
MIC [6]: 0.2 µM (≈ 0.0855 µg/mL)
MIC [7]: 0.4 µM (≈ 0.171 µg/mL)
MIC [8]: 0.8 µM (≈ 0.342 µg/mL)
MIC PM 6267 [9]: <=0.1 μM

C=CCNCc1ccc(C#Cc2ccc(C(=O)N[C@H](C(=O)NO)[C@@H](C)O)cc2)cn1 [C. 415]
MIC [1]: 0.4 µM (≈ 0.163 µg/mL)
MIC [2]: 1.6 µM (≈ 0.654 µg/mL)
MIC [3]: 1.6 µM (≈ 0.654 µg/mL)
MIC PM 10775 [4]: <=0.1 μM
MIC MH 12587 [5]: 1.6 µM (≈ 0.654 µg/mL)
MIC [6]: 0.2 µM (≈ 0.0817 µg/mL)
MIC [7]: 0.4 µM (≈ 0.163 µg/mL)
MIC [8]: 0.8 µM (≈ 0.327 µg/mL)
MIC [9]: 0.2 µM (≈ 0.0817 µg/mL)

C[C@@H](O)[C@H](NC(=O)c1ccc(C#Cc2ccc(CNCc3ccco3)s2)cc1)C(=O)NO [Compound 409]
MIC MH 13065 [1]: <=0.1 μM
MIC [2]: 0.2 µM (≈ 0.0907 µg/mL)
MIC MH 6374 [3]: <=0.1 μM
MIC PM 10775 [4]: <=0.1 μM
MIC MH 12587 [5]: 0.4 µM (≈ 0.181 µg/mL)
MIC PM 6391 [6]: <=0.1 μM
MIC PM 12080 [7]: <=0.1 μM
MIC [8]: 0.2 µM (≈ 0.0907 µg/mL)
MIC PM 6267 [9]: <=0.1 μM

C[C@@H](O)[C@H](NC(=O)c1ccc(C#Cc2ccc(CNCc3cccnc3)s2)cc1)C(=O)NO [Compound 407]
MIC [1]: 0.2 µM (≈ 0.0929 µg/mL)
MIC [2]: 0.4 µM (≈ 0.186 µg/mL)
MIC [3]: 0.4 µM (≈ 0.186 µg/mL)
MIC PM 10775 [4]: <=0.1 μM
MIC MH 12587 [5]: 0.4 µM (≈ 0.186 µg/mL)
MIC PM 6391 [6]: <=0.1 μM
MIC PM 12080 [7]: <=0.1 μM
MIC [8]: 0.4 µM (≈ 0.186 µg/mL)
MIC PM 6267 [9]: <=0.1 μM

C[C@@H](O)[C@H](NC(=O)c1ccc(C#Cc2ccc(CNC3CC3)s2)cc1)C(=O)NO [Compound 398]
MIC [1]: 0.2 µM (≈ 0.0827 µg/mL)
MIC [2]: 0.2 µM (≈ 0.0827 µg/mL)
MIC [3]: 0.8 µM (≈ 0.331 µg/mL)
MIC PM 10775 [4]: <=0.1 μM
MIC MH 12587 [5]: 0.4 µM (≈ 0.165 µg/mL)
MIC PM 6391 [6]: <=0.1 μM
MIC PM 12080 [7]: <=0.1 μM
MIC [8]: 0.4 µM (≈ 0.165 µg/mL)
MIC PM 6267 [9]: <=0.1 μM

C[C@@H](O)[C@H](NC(=O)c1ccc(C#Cc2ccc(CNC3CC3)nc2)cc1)C(=O)NO [C. 413]
MIC [1]: 0.4 µM (≈ 0.163 µg/mL)
MIC [2]: 0.4 µM (≈ 0.163 µg/mL)
MIC [3]: 0.8 µM (≈ 0.327 µg/mL)
MIC PM 10775 [4]: <=0.1 μM
MIC MH 12587 [5]: 0.8 µM (≈ 0.327 µg/mL)
MIC PM 6391 [6]: <=0.1 μM
MIC PM 12080 [7]: <=0.1 μM
MIC [8]: 0.4 µM (≈ 0.163 µg/mL)
MIC PM 6267 [9]: <=0.1 μM

CC(C)(N)C(NC(=O)c1ccc(C#Cc2ccc(CNCc3ccncc3)s2)cc1)C(=O)NO (stereo not drawn) [Compound 527]
MIC [1]: 0.8 µM (≈ 0.382 µg/mL)
MIC [2]: 1.6 µM (≈ 0.764 µg/mL)
MIC [3]: 0.8 µM (≈ 0.382 µg/mL)
MIC MH 12587 [5]: 0.8 µM (≈ 0.382 µg/mL)
MIC PM 6391 [6]: <=0.1 μM
MIC [10]: 0.2 µM (≈ 0.0955 µg/mL)
MIC PM 12080 [7]: <=0.1 μM
MIC [8]: 0.8 µM (≈ 0.382 µg/mL)
MIC [9]: 1.6 µM (≈ 0.764 µg/mL)

CC(C)(N)C(NC(=O)c1ccc(C#Cc2ccc(CNCc3ccccn3)s2)cc1)C(=O)NO (stereo not drawn) [Compound 534]
MIC [1]: 0.8 µM (≈ 0.382 µg/mL)
MIC [2]: 1.6 µM (≈ 0.764 µg/mL)
MIC [3]: 0.8 µM (≈ 0.382 µg/mL)
MIC MH 12587 [5]: 1.6 µM (≈ 0.764 µg/mL)
MIC PM 6391 [6]: <=0.1 μM
MIC [10]: 0.2 µM (≈ 0.0955 µg/mL)
MIC PM 12080 [7]: <=0.1 μM
MIC [8]: 0.8 µM (≈ 0.382 µg/mL)
MIC [9]: 1.6 µM (≈ 0.764 µg/mL)

C[C@@H](O)[C@H](NC(=O)c1ccc(C#Cc2ccc(CNCc3ccccn3)s2)cc1)C(=O)NO [Compound 408]
MIC [1]: 0.4 µM (≈ 0.186 µg/mL)
MIC [2]: 0.4 µM (≈ 0.186 µg/mL)
MIC [3]: 0.4 µM (≈ 0.186 µg/mL)
MIC PM 10775 [4]: <=0.1 μM
MIC MH 12587 [5]: 0.8 µM (≈ 0.372 µg/mL)
MIC PM 6391 [6]: <=0.1 μM
MIC PM 12080 [7]: <=0.1 μM
MIC [8]: 0.4 µM (≈ 0.186 µg/mL)
MIC PM 6267 [9]: <=0.1 μM

CC(C)(N)C(NC(=O)c1ccc(C#Cc2ccc(CNCc3ccccc3)s2)cc1)C(=O)NO (stereo not drawn) [Compound 525]
MIC [1]: 0.8 µM (≈ 0.381 µg/mL)
MIC [2]: 0.8 µM (≈ 0.381 µg/mL)
MIC [3]: 0.4 µM (≈ 0.191 µg/mL)
MIC MH 12587 [5]: 1.6 µM (≈ 0.763 µg/mL)
MIC [6]: 0.2 µM (≈ 0.0953 µg/mL)
MIC [10]: 0.2 µM (≈ 0.0953 µg/mL)
MIC PM 12080 [7]: <=0.1 μM
MIC [8]: 0.8 µM (≈ 0.381 µg/mL)
MIC [9]: 1.6 µM (≈ 0.763 µg/mL)

CC(C)(N)C(NC(=O)c1ccc(C#Cc2ccc(CNC3CC3)s2)cc1)C(=O)NO (stereo not drawn) [C. 521]
MIC [1]: 1.6 µM (≈ 0.682 µg/mL)
MIC [2]: 0.8 µM (≈ 0.341 µg/mL)
MIC [3]: 0.4 µM (≈ 0.171 µg/mL)
MIC MH 12587 [5]: 0.8 µM (≈ 0.341 µg/mL)
MIC PM 6391 [6]: <=0.1 μM
MIC MH 10720 [10]: <=0.1 μM
MIC PM 12080 [7]: <=0.1 μM
MIC [8]: 0.8 µM (≈ 0.341 µg/mL)
MIC [9]: 0.8 µM (≈ 0.341 µg/mL)

CC(C)(N)C(NC(=O)c1ccc(C#Cc2ccc(CNCc3cccs3)s2)cc1)C(=O)NO (stereo not drawn) [Compound 536]
MIC [1]: 0.4 µM (≈ 0.193 µg/mL)
MIC [2]: 0.8 µM (≈ 0.386 µg/mL)
MIC [3]: 0.2 µM (≈ 0.0965 µg/mL)
MIC MH 12587 [5]: 0.8 µM (≈ 0.386 µg/mL)
MIC PM 6391 [6]: <=0.1 μM
MIC MH 10720 [10]: <=0.1 μM
MIC PM 12080 [7]: <=0.1 μM
MIC [8]: 0.8 µM (≈ 0.386 µg/mL)
MIC [9]: 0.8 µM (≈ 0.386 µg/mL)

CC(C)(N)C(NC(=O)c1ccc(C#Cc2ccc(CNCc3ccco3)nc2)cc1)C(=O)NO (racemic) [Compound 548]
MIC [1]: 0.8 µM (≈ 0.369 µg/mL)
MIC [2]: 1.6 µM (≈ 0.738 µg/mL)
MIC [3]: 0.8 µM (≈ 0.369 µg/mL)
MIC MH 12587 [5]: 1.6 µM (≈ 0.738 µg/mL)
MIC [6]: 0.2 µM (≈ 0.0923 µg/mL)
MIC [10]: 0.2 µM (≈ 0.0923 µg/mL)
MIC PM 12080 [7]: <=0.1 μM
MIC [8]: 1.6 µM (≈ 0.738 µg/mL)
MIC [9]: 1.6 µM (≈ 0.738 µg/mL)

C=CCNCc1ccc(C#Cc2ccc(C(=O)NC(C(=O)NO)C(C)(C)N)cc2)s1 (stereo not drawn) [C. 522]
MIC [1]: 0.8 µM (≈ 0.341 µg/mL)
MIC [2]: 1.6 µM (≈ 0.682 µg/mL)
MIC [3]: 0.4 µM (≈ 0.171 µg/mL)
MIC MH 12587 [5]: 1.6 µM (≈ 0.682 µg/mL)
MIC [6]: 0.2 µM (≈ 0.0853 µg/mL)
MIC [10]: 0.2 µM (≈ 0.0853 µg/mL)
MIC PM 12080 [7]: <=0.1 μM
MIC [8]: 1.6 µM (≈ 0.682 µg/mL)
MIC [9]: 1.6 µM (≈ 0.682 µg/mL)

CC(C)(N)C(NC(=O)c1ccc(C#Cc2ccc(CNCc3cccnc3)s2)cc1)C(=O)NO (stereo not drawn) [Compound 532]
MIC [1]: 0.8 µM (≈ 0.382 µg/mL)
MIC [2]: 1.6 µM (≈ 0.764 µg/mL)
MIC [3]: 0.8 µM (≈ 0.382 µg/mL)
MIC MH 12587 [5]: 1.6 µM (≈ 0.764 µg/mL)
MIC PM 6391 [6]: <=0.1 μM
MIC [10]: 0.2 µM (≈ 0.0955 µg/mL)
MIC PM 12080 [7]: <=0.1 μM
MIC [8]: 1.6 µM (≈ 0.764 µg/mL)
MIC [9]: 1.6 µM (≈ 0.764 µg/mL)
